{
  "source": "patent US20080280851A1",
  "about": "(Clavis Pharma AS, priority 2005, published 2008)",
  "key": {"[1]": {"system": "Colon 6044 (human colon carcinoma)", "assay": "Antitumour activity in Co6044 after oral administration, different dosing schedules (Table 4)", "type": "in vivo, NCR: nu/nu female mice", "conditions": "for BWC / Toxic deaths (d) / Optimum T/C (on day): Oral; for Toxic deaths (d): 7 mice", "excerpt": "Antitumour Activity of Elaidic Acid (5′)-Gemcitabine Ester in Co6044 after Oral Administration"}, "[2]": {"system": "Co6044 (human colon carcinoma)", "assay": "Antitumour activity in human colon cancer xenograft Co6044, IP treatment", "conditions": "for antitumor effect: IP every third day for five times, ester 40 mg/kg, gemcitabine 120 mg/kg; for Toxic deaths (d): 8 mice", "quoted_text": "(§1) Treatment started when the tumours reached a mean volume of 100 mm^3."}, "[3]": {"system": "Colon 6044 (human colon carcinoma)", "assay": "Antitumour activity in Co6044 after oral administration (Table 3)", "conditions": "for BWC D13 / Toxic deaths (d) / Optimum T/C (on day): Oral, Q3 × 5"}, "[4]": {"assay": "Maximum tolerated dose, every third day repeated five times", "type": "in vivo, mice", "conditions": "administered every third day", "excerpt": "This is shown below by the experiments presented in table 1 and table 2 using different mice strains and also different human colon xenografts."}, "[5]": {"system": "Colon 5776 (human colon carcinoma)", "assay": "Antitumour activity in human colon xenograft Co5776, IP treatment", "conditions": "for Toxic deaths (d): D8, 11, 14, 17, 20, 8 mice; for antitumour activity in terms of reductions in tumour growth: gemcitabine 120 mg/kg, elaidic acid (5′)-gemcitabine ester 40 mg/kg, FIG. 1", "quoted_text": "(§2) Human colon cancer Co5776 was inserted to Ncr:nu/nu female mice subcutaneously, and treatment started when tumours reached a mean volume of 100 mm^3."}, "[6]": {"system": "Co6044 (human colon carcinoma)", "conditions": "mouse, in vivo, ip, 120 mg/kg", "quoted_text": "as §1"}, "[7]": {"system": "Colon 6044 (human colon carcinoma)", "conditions": "mouse, in vivo, po"}, "[8]": {"system": "Colon 5776 (human colon carcinoma)", "conditions": "mouse, in vivo, ip, 120 mg/kg", "quoted_text": "as §2"}, "[9]": {"conditions": "IP, 40 mg/kg, D8, 11, 14, 17, 20"}, "[10]": {"conditions": "IP, 120 mg/kg, D8, 11, 14, 17, 20"}},
  "note": "Like-named read-outs stand apart in the source and are kept apart here. Marks after values point to notes of the source that are not given here.",
  "data": [
    {"compound": "CCCCCCCC/C=C/CCCCCCCC(=O)OC[C@H]1O[C@@H](n2ccc(N)nc2=O)C(F)(F)[C@@H]1O", "note": "[Elaidic acid (5′)-gemcitabine ester, elaidic acid (5′)-gemcitabine ester]", "values": [
      {"measurement": "BWC", "setting": "[1]; 5 mg/kg, D7-11", "value": "−3", "unit": "%"},
      {"measurement": "Toxic deaths (d)", "setting": "[1]; 5 mg/kg, D7-11", "value": 0},
      {"measurement": "Optimum T/C (on day)", "setting": "[1]; 5 mg/kg, D7-11, on day 28", "value": "10 (28)* %"},
      {"measurement": "BWC", "setting": "[1]; 10 mg/kg, D7, 10, 13, 16, 19", "value": "−1", "unit": "%"},
      {"measurement": "Toxic deaths (d)", "setting": "[1]; 10 mg/kg, D7, 10, 13, 16, 19", "value": 0},
      {"measurement": "Optimum T/C (on day)", "setting": "[1]; 10 mg/kg, D7, 10, 13, 16, 19, on day 24", "value": "35 (24)* %"},
      {"measurement": "BWC", "setting": "[1]; 10 mg/kg, D7-11", "value": "−5", "unit": "%"},
      {"measurement": "Toxic deaths (d)", "setting": "[1]; 10 mg/kg, D7-11", "value": 0},
      {"measurement": "Optimum T/C (on day)", "setting": "[1]; 10 mg/kg, D7-11, on day 17", "value": "8 (17)* %"},
      {"measurement": "BWC", "setting": "[1]; 15 mg/kg, D7, 10, 13, 16, 19", "value": "−1", "unit": "%"},
      {"measurement": "Toxic deaths (d)", "setting": "[1]; 15 mg/kg, D7, 10, 13, 16, 19", "value": 0},
      {"measurement": "Optimum T/C (on day)", "setting": "[1]; 15 mg/kg, D7, 10, 13, 16, 19, on day 24", "value": "27 (24)* %"},
      {"measurement": "BWC", "setting": "[1]; 20 mg/kg, D7, 10, 13, 16, 19", "value": "−3", "unit": "%"},
      {"measurement": "Toxic deaths (d)", "setting": "[1]; 20 mg/kg, D7, 10, 13, 16, 19, death on day 17", "value": "1 (17)"},
      {"measurement": "Optimum T/C (on day)", "setting": "[1]; 20 mg/kg, D7, 10, 13, 16, 19, on day 24", "value": "16 (24)* %"},
      {"measurement": "BWC", "setting": "[1]; 50 mg/kg, D7, 14", "value": 0, "unit": "%"},
      {"measurement": "Toxic deaths (d)", "setting": "[1]; 50 mg/kg, D7, 14", "value": 0},
      {"measurement": "Optimum T/C (on day)", "setting": "[1]; 50 mg/kg, D7, 14, on day 17", "value": "22 (17)* %"},
      {"measurement": "BWC", "setting": "[1]; 100 mg/kg, D7, 14", "value": "−4", "unit": "%"},
      {"measurement": "Toxic deaths (d)", "setting": "[1]; 100 mg/kg, D7, 14, death on day 20", "value": "1 (20)"},
      {"measurement": "Optimum T/C (on day)", "setting": "[1]; 100 mg/kg, D7, 14, on day 24", "value": "4 (24)* %"},
      {"measurement": "antitumour activity after oral administration", "setting": "[1]; oral, all tested schedules", "value": "High dose dependent activity"},
      {"measurement": "significance of antitumour activity", "setting": "[1]; oral, all the tested schedules", "value": "Significant antitumour activity"},
      {"measurement": "antitumor effect", "setting": "[2]", "value": "Excellent antitumor effect"},
      {"measurement": "Optimum T/C", "setting": "[2]; [9]", "value": "19* %"},
      {"measurement": "Toxic deaths (d)", "setting": "[2]; [9]", "value": 0},
      {"measurement": "BWC D8-15 (body weight change)", "setting": "[2]; IP, 40 mg/kg, D8, 11, 14, 17, 20, D8-15", "value": "−1"},
      {"measurement": "BWC D13", "setting": "[3]; 40 mg/kg", "value": "−7", "unit": "%"},
      {"measurement": "Toxic deaths (d)", "setting": "[3]; 40 mg/kg, deaths on day 15", "value": "2/8 (15)"},
      {"measurement": "Optimum T/C (on day)", "setting": "[3]; 40 mg/kg, on day 27", "value": "5 (27)* %"},
      {"measurement": "Optimum T/C (on day)", "setting": "[3]; 60 mg/kg", "value": "Toxic"},
      {"measurement": "BWC D13", "setting": "[3]; 60 mg/kg", "value": "−9", "unit": "%"},
      {"measurement": "Toxic deaths (d)", "setting": "[3]; 60 mg/kg, deaths on days 12-24", "value": "6/8 (12-24)"},
      {"measurement": "Optimum T/C (on day)", "setting": "[3]; 80 mg/kg", "value": "Toxic"},
      {"measurement": "BWC D13", "setting": "[3]; 80 mg/kg", "value": "−6", "unit": "%"},
      {"measurement": "Toxic deaths (d)", "setting": "[3]; 80 mg/kg, deaths on days 16-22", "value": "6/8 (16-22)"},
      {"measurement": "antitumour activity after oral administration", "setting": "[3]; oral, 40 mg/kg", "value": "highly active"},
      {"measurement": "tolerability after oral administration", "setting": "[3]; oral, 40 mg/kg", "value": "tolerable"},
      {"measurement": "maximum tolerated dose", "setting": "[4]", "value": "~40", "unit": "mg/kg per injection"},
      {"measurement": "BWC (body weight change)", "setting": "[5]; 40 mg/kg, D8, 11, 14, 17, 20", "value": "−4", "unit": "%"},
      {"measurement": "Optimum T/C (volume of treated tumour versus volume of control tumour)", "setting": "[5]; 40 mg/kg, D8, 11, 14, 17, 20", "value": "17* %"},
      {"measurement": "Toxic deaths (d)", "setting": "[5]; 40 mg/kg", "value": 0},
      {"measurement": "antitumour activity in terms of reductions in tumour growth", "setting": "[5]", "value": "high antitumour activity"}
    ]},
    {"compound": "Nc1ccn([C@@H]2O[C@H](CO)[C@@H](O)C2(F)F)c(=O)n1", "note": "[Gemcitabine, 2′,2′-difluorodeoxycytidine, reference compound]", "values": [
      {"measurement": "BWC D8-15 (body weight change)", "setting": "[6]", "value": "−3"},
      {"measurement": "BWC D13", "setting": "[7]; 120 mg/kg", "value": "−16", "unit": "%"},
      {"measurement": "BWC D13", "setting": "[7]; 180 mg/kg", "value": "−22", "unit": "%"},
      {"measurement": "BWC D13", "setting": "[7]; 240 mg/kg", "value": "−21", "unit": "%"},
      {"measurement": "antitumor effect", "setting": "[2]", "value": "Excellent antitumor effect"},
      {"measurement": "Optimum T/C", "setting": "[2]; [10]", "value": "15* %"},
      {"measurement": "Toxic deaths (d)", "setting": "[2]; [10]", "value": 0},
      {"measurement": "maximum tolerated dose", "setting": "[4]", "value": "approximately 120 mg/kg per injection"},
      {"measurement": "Optimum T/C (volume of treated tumour versus volume of control tumour)", "setting": "[5]; 120 mg/kg, D8, 11, 14, 17, 20", "value": "17* %"},
      {"measurement": "Toxic deaths (d)", "setting": "[5]; 120 mg/kg, death on day 18", "value": "1 (18)"},
      {"measurement": "antitumour activity in terms of reductions in tumour growth", "setting": "[5]", "value": "high antitumour activity"},
      {"measurement": "BWC (body weight change)", "setting": "[8]", "value": "−5", "unit": "%"}
    ]}
  ]
}
